Experimental findings from patent US20220275387A1, “TRANSCRIPTION FACTOR NtERF221 AND METHODS OF USING THE SAME” (University of Virginia Patent Foundation, priority 2019, published 2022) are described below.

For data set [1], the system named is Nicotiana tabacum L. var. K326. Nature of the data set: GC-MS quantification of nicotine in leaf of wild-type and transgenic tobacco. In kind it is in vivo. To be noted: five-week-old plants, DMSO or MeJA. The procedure:
(§1) Plant materials and transformation. Tobacco plants (Nicotiana tabacum L. var. K326) were used for all the tests and genetic transformations described herein. Wild-type or transgenic seeds were germinated on Murashige and Skoog (MS) plates. For quantitative RT-PCR, germinated small seedlings were transferred onto larger MS plates and grown vertically until two weeks old before treated with 0.1% DMSO (control) or 100 μM MeJA. For TLC and GC-MS analysis, germinated seedlings were transferred in soil and grown under normal condition till five weeks old before DMSO or MeJA treatment. Agrobacterium tumefaciens strain LBA4404 harboring each transgenic vector was used for genetic transformation of tobacco following the experiment procedure described previously (Horsch et al., 1985). At least eight T0 transgenic plants were confirmed by genomic DNA PCR and then self-pollinated to produce T1 generation. […]
Gas chromatography-mass spectrometry (GC-MS). […] Nicotine concentration was measured on a Shimadzu GCMS QP2010 plus system with a protocol developed previously (Goossens et al., (2003); Zhang et al., (2012)). […]
To further quantify nicotine concentration for the comparison between transgenic lines and the wild-types, GC-MS analysis was applied with total alkaloids extracted from the leaf tissue of five-week-old wild-type or transgenic plants treated with DMSO (control) or MeJA. […]

The test system of data set [2] is Nicotiana tabacum L. var. K326. The data set is described as follows: TLC assay for nicotine accumulation in leaves of T2 overexpression lines. The class given is in vivo. To be noted: T2 transgenic plants, 5-week-old, constitutive or conditional overexpression. On the procedure:
Plant materials and transformation. Tobacco plants (Nicotiana tabacum L. var. K326) were used for all the tests and genetic transformations described herein. Wild-type or transgenic seeds were germinated on Murashige and Skoog (MS) plates. For quantitative RT-PCR, germinated small seedlings were transferred onto larger MS plates and grown vertically until two weeks old before treated with 0.1% DMSO (control) or 100 μM MeJA. For TLC and GC-MS analysis, germinated seedlings were transferred in soil and grown under normal condition till five weeks old before DMSO or MeJA treatment. […]
Each gene was put into three different expression constructs respectively under the control of three different promoters described above (FIG. 3A). […] For each construct, at least eight lines were confirmed to have the transgene stably integrated into the genome by genomic PCR, the intact structure of the transgene was validated and relative level of transgene expression measured by RT-PCR using gene specific primers as is standard practice. The level of nicotine was assessed by TLC analysis to quickly identify the transformants with higher nicotine accumulation than the wild-type. […] T1 lines were similarly self-pollinated and the resulting T2 plants analyzed. […]

The subject of data set [3] is NtAO, NtODC, NtPMT, NtQPT, and NtQS. The data set is described as follows: RT-qPCR of nicotine biosynthesis structural genes in transgenic tobacco seedlings. The settings on record: two-week-old seedlings, 100 μM MeJA for 8 hours, normalized to NtEF-1α. The class given is in vivo, Nicotiana tabacum. The procedure: as §1
RNA isolation and quantitative reverse transcription-PCR (RT-qPCR). […] The DNA-eliminated total RNA was then reverse-transcribed using QuantiTect reverse transcription kit (Qiagen). Quantitative PCR was conducted iTaq™ Universal SYBR® Green supermix (Bio-Rad Laboratories) on an CFX96™ Real-Time PCR detection system (Bio-Rad Laboratories). […]
(In general: Quantitative PCR measures a nucleic acid by following its amplification.)

“Also recorded” adds a separate entry of the source.

“NtERF221: AP2/ERF family transcription factor transgene (CQ808982, SEQ ID NO: 1) overexpressed in tobacco K326”: the “nicotine concentration in the leaf, comparison among transgenic lines” value in data set [1] was “highest nicotine concentration”. Also, in data set [2], the “nicotine accumulation versus wild-type (TLC)” value is given as “significantly elevated nicotine accumulation”. Besides, in data set [3], the “JA-induced transcript accumulation of NtAO, NtODC, NtPMT, NtQPT, and NtQS versus wild-type” value is “far greater; also recorded: greatly up-regulated”.
